Values of other authors, collected in patent US20060106004A1, “Unique methods and formulations of bio-identical sex steroids for the treatment of pathophysiologic aberrations of menopause” (priority 2004, published 2006).

Tests used:
mammary carcinoma = conditions: following radiation or carcinogenesis
metastatic breast cancer = conditions: doses from 2.5 to 15 mg/day
uterus = conditions: ovariectomized rats

In the case of `C[C@]12CC[C@@H]3c4ccc(O)cc4CC[C@H]3[C@@H]1C[C@@H](O)[C@@H]2O` [Estriol, estriol], the “reduction of mammary carcinoma rates” value (mammary carcinoma) is given as 80%, the “proportion of women with arrested growth and remission of metastatic lesions” value (metastatic breast cancer) is given as “Over ⅓” and the “stimulation of uterine weights” value (uterus) is given as “does not significantly stimulate uterine weights”.
